# Results reported in patent EP4772164A1, “CERAMIDE MIXTURE FOR IMPROVING COMPATIBILITY” (Amorepacific Corporation, priority 2023, dated 2025).
# Key:
# Type in all cases: physicochemical
# [1] = Ceramide compatibility by differential scanning calorimetry (DSC): melting enthalpy and compatibility ratio; settings: for Peak area / Melting enthalpy: DSC; for Compatibility ratio 104+NPS / Compatibility ratio 104+NPO: from total melting enthalpy; for Compatibility ratio 104+NPS / Enthalpy (J/g) NPS / Compatibility ratio 104+NPO / Enthalpy (J/g) NPO: by 104 Ratio; for Ratio: measured peak area / calculated theoretical value, PC-104 and NPS; for Enthalpy (J/g) NPS / Enthalpy (J/g) NPO: total melting enthalpy of mixed ceramides; for Enthalpy (J/g) NPS: 104 with NPS; for Melting enthalpy: total melting enthalpy of single unmixed ceramide; for Enthalpy (J/g) NPO: 104 with NPO
# Experimental: Ceramide compatibility was evaluated through measurement of differential scanning calorimetry (DSC). It is known that a ceramide compatibility study through DSC measurement may be utilized when measurement is not performed by polythermal and isothermal methods, or when slurry density of a solution is high, but has almost never been utilized in a ceramide study. In prediction of solubility of indomethacin (IMC) in polymers such as hydroxypropyl methylcellulose (HPMC) and polyvinylpyrrolidone (PVP), it was also confirmed that solubility prediction of a DSC method is excellent in a combination of IMC and HPMC. Since confirming compatibility between ceramides is a situation of confirming solubility when two solid-phase substances are mixed, a DSC experiment is determined to be very suitable, and thus the present inventors confirmed compatibility by measuring enthalpy of each ceramide, predicting enthalpy of a binary mixture, and actually measuring the same. For DSC measurement, a Thermal Analysis System (differential scanning calorimetry) such as Discovery DSC 250 of TA Instruments was used. In a DSC graph, melting enthalpy was measured by obtaining a peak area, and a unit of the peak area was J/g. A compatibility ratio was calculated by comparing a peak area measurement result of a sample in which ceramides are mixed and a calculated theoretical value (calculated sum area). A compatibility ratio is a ratio indicating compatibility when two components are mixed, and may be used to evaluate whether two components are stable even when mixed and may maintain desired characteristics.. […]
# A single sample in which PC-104 and ceramide NP are unmixed (10:0 or 0:10), and samples in which PC-104 and ceramide NP are mixed at ratios such as 1:9 to 9.99:0.01, were each made, a DSC peak area was measured, and an actually measured DSC peak area and a calculated theoretical value according to a ratio of PC-104 and ceramide NP were compared. For compatibility evaluation, a ceramide mixing ratio having a low compatibility ratio was confirmed.
# [2] = as above; settings: for Ratio: measured peak area / calculated theoretical value
# [3] = Solubility of ceramide or ceramide mixture in pure ethanol (94.5% or more)
# From the text: Through Example 1, an effect of improvement of compatibility according to ceramide mixing confirmed through DSC measurement was confirmed. Accordingly, an effect of improvement of solubility was additionally confirmed. Specifically, solubility was confirmed as to how well the ceramide or the ceramide mixture dissolves in pure ethanol (94.5% or more).
# [4] = PC-104 and NPS at stated weight mixing ratio
# [5] = PC-104 and NPO at stated weight mixing ratio
Structure (SMILES),"Peak area [1, 4] [J/g]",Compatibility ratio 104+NPS [1],Ratio [1],Enthalpy (J/g) NPS [1] [J/g],Melting enthalpy [1] [J/g],"Peak area [1, 5] [J/g]",Compatibility ratio 104+NPO [1],Enthalpy (J/g) NPO [1] [J/g],Ratio ([2]; PC-104 and NPO),EtOH solubility (mg/uL) [3],"Peak area ([2]; DSC, PC-104 and NPM at stated weight mixing ratio) [J/g]",DSC enthalpy (J/g) of corresponding composition ([2]; PC-104 and NPM compositions of the solubility test) [J/g],"Calculated sum area ([2]; calculated theoretical value from the two unmixed ceramides, PC-104 and NPM) [J/g]","Compatibility ratio 104+NPM ([2]; from total melting enthalpy, by 104 Ratio)",Ratio ([2]; PC-104 and NPM),"Enthalpy (J/g) NPM ([2]; total melting enthalpy of mixed ceramides, 104 with NPM, by 104 Ratio) [J/g]"
"CCCCCCCCCCCCCCCCCC(=O)NC(CO)C(O)C(O)CCCCCCCCCCCCCC (centres unmarked) [NPS, CERAMIDE NP(stearic acid)]",114.6,1.00,1.00,114.6,114.6,,,,,,,,,,,
"CCCCCCCC/C=C\CCCCCCCC(=O)N[C@@H](CO)[C@H](O)[C@H](O)CCCCCCCCCCCCCC [NPO, CERAMIDE NP(oleic acid)]",,,,,89.0,89.0,1.00,89.0,1.00,,,,,,,
"CCCCCCCCCCCCCCCC(=O)N(CCO)CC(O)CN(CCO)C(=O)CCCCCCCCCCCCCCC [PC-104, HYDROXYPROPYL BISPALMITAMIDE MEA]",151.6,1.00,1.00,151.6,151.6,151.6,1.00,151.6,1.00,about 0.04636 mg/uL,151.6,151.6,151.6,1.00,1.00,151.6
